Experimental data reported in patent publication US20250179028A1, “ACRYLAMIDE COMPOUNDS” (NRG THERAPEUTICS LTD, priority 2022, published 2025).
≈ marks a conversion by molar mass, not a printed value. Where two headings read alike, the source gives them in different places.

What was measured:
[1] = tested on: mPTP; test: mPTP activity (Ca2+ retention) assay in isolated rat liver mitochondria; type: biochemical; conditions: isolated rat liver mitochondria; average value from multiple experiments (n ≥ 2)
Description: Pharmacological inhibition or modulation of the mPTP can be measured in well characterised ‘Ca^2+ retention’ assays performed in isolated mitochondria. In vitro isolated mitochondria rapidly sequester exogenous Ca^2+ until the intramitochondrial Ca^2+ concentration reaches the threshold for mPTP activation. Once the pore is activated, mitochondrial integrity is compromised and the stored Ca^2+ is released. The distribution of Ca^2+ between extra- and intra-mitochondrial compartments can be measured in real time with the use of membrane-impermeant Ca^2+ sensitive fluorescent dyes. Depending on the configuration of the assay, inhibition or modulation of the mPTP either delays the opening of the pore or increases the concentration of Ca^2+ required to induce mPTP opening.
MPTP activity was measured in mitochondria freshly isolated from female Sprague Dawley (250 to 300 gram) rat livers using the following method. Cervical dislocation was performed on the rat. The liver was then perfused in-situ with ˜40 ml cold Dulbecco's Phosphate Buffered Saline (DPBS) prior to dissection and transferred into 30 ml Isolation Buffer (250 mM Sucrose, 10 mM KCl, 1 mM EGTA, 1 mM EDTA, 25 mM HEPES, adjusted to pH 7.5 with 1 M NaOH). Each lobe of the liver was then removed from the buffer, minced using tweezers and a scalpel into ˜5 mm pieces then transferred into a 50 ml Potterton dounce homogenization tube on ice containing 30 ml ice-cold centrifugation buffer (300 mM Trehalose, 25 mM HEPES, 1 mM EGTA, 1 mM EDTA, 10 mM KCl, adjusted to pH 7.5 with 1 M NaOH and supplemented with 0.1% bovine serum albumin (BSA) and complete protease inhibitor cocktail (one tablet of inhibitor per 50 mls of buffer). Homogenisation was carried out using a teflon pestle at 1800 rpm. The slurry was centrifuged at 800 g for 10 min at 4° C., then the supernatant centrifuged at 10,000 g for 10 min. The pellet was washed once with FLIPR assay buffer (75 mM Mannitol, 25 mM Sucrose, 5 mM Potassium Phosphate Monobasic, 20 mM Tris base, 100 mM KCl, 0.1% BSA adjusted to pH 7.4 with 5M HCl) centrifuged again, then resuspended in FLIPR assay buffer to a concentration of 8.8 mg/ml protein.
Tested compounds (10 mM stock in DMSO) were serially diluted in DMSO in half log steps to generate 10 test concentrations (final concentrations in assay 30 μM to 1 nM). An intermediate dilution of 5 μl DMSO samples into 247 μl FLIPR assay buffer was carried out prior to transfer of 5 μl into duplicate wells of a 384 well polypropylene assay plate. Control wells were 0.5% (v/v) DMSO and 5 μM cyclosporin A.
A stock mitochondria/Fluo5N assay solution was prepared in 5.6 ml FLIPR assay buffer (at RT) supplemented with succinate disodium salt (10 mM), rotenone (1 μM), Fluo5N pentapotassium salt (2 μM) and 1 ml mitochondria suspension, then transferred (15 μl) into the assay plate containing test compounds and incubated for 10 min at RT. Assay plates were then transferred to a FLIPR Tetra plate reader (Molecular Devices). Dye fluorescence was then measured every 3 sec for a total of 10 min. After 12 sec, a 2.5 μl bolus of CaCl2 (75 μM) was added from a source plate containing 675 μM CaCl2 in FLIPR assay buffer. IC50 values for tested compounds were calculated using the fluorescence value collected at the 10 min timepoint with % inhibition calculated using the DMSO control and cyclosporin A values as […] respectively.

[2] = target: CYP2D6 (Homo sapiens (Human), UniProt P10635); test: Cytochrome P450 CYP2D6 inhibition in human liver microsomes; type: in vitro ADME; conditions: human liver microsomes, average value from two experiments; for inhibition at 20 min, 1 µM: probe dextromethorphan 2 µM (dextrorphan formation), 1 uM test compound, negative values = no effective inhibition
Chain of CYP2D6 (P10635 whole entry, canonical isoform): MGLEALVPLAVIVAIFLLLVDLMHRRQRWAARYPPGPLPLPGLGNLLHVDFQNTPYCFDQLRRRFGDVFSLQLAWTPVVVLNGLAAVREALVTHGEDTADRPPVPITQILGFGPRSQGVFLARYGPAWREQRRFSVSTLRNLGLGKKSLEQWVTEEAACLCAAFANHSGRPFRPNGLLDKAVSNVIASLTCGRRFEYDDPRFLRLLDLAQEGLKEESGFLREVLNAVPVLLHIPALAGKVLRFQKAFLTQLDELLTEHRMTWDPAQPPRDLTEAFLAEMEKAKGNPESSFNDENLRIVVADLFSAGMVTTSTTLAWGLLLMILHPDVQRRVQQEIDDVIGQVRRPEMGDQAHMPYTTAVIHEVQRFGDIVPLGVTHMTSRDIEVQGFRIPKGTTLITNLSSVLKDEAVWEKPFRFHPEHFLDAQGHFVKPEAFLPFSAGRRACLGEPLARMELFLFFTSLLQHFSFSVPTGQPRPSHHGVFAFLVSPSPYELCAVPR
Description: Studies to assess tested compound mediated inhibition of cytochrome P450 enzyme isoform CYP2D6 were performed using human liver microsomes (BD Gentest) using either a single concentration (1 μM) of test compound or concentration response (0.1, 0.3, 1, 3, 10 and 30 μM) to derive an IC50. Tested compound solutions were prepared from 10 mM stocks in DMSO and diluted to 200 μM in DMSO. Reactions were prepared in a 96 deep well plate by combining 1 μl test compound with 179 μl reaction mixture (100 mM phosphate buffered saline (PBS), 0.2 mg/mL microsomes and 2 μM Dextromethorphan prepared from stocks as detailed below).
The positive control inhibitor, quinidine, was used at a final concentration of 0.5 μM when used at a single concentration. The final concentrations of quinidine used to derive an IC50 were 0, 0.1, 0.3, 1, 3, 10 and 30 μM. Plates were warmed at 37° C. for 15 min before starting reactions with 20 μl 10 mM NADPH solution in PBS and incubated for 20 min at 37° C. The assay is performed in duplicate. Reactions were quenched with 200 μl cold acetonitrile containing internal standards (200 nM labetalol, 200 nM alprazolam and 100 nM tolbutamide). The plate was centrifuged at 4000 rpm for 30 minutes, placed on ice for 20 minutes and then centrifuged at 4000 rpm for 30 minutes again to precipitate protein. 100 μL of the supernatant was transferred to a new plate and diluted with 100 μL pure water before being analysed using UPLC/MS/MS. The products of the transformation for dextromethorphan to dextrorphan was monitored by UPLC-MS/MS. The inhibition of CYP2D6 in human liver microsomes was measured as the percentage decrease in the activity of dextrorphan formation compared to non-inhibited controls (=100% activity). The IC50 value was calculated (test compound concentration which produces 50% inhibition) by using Excel Xlfit.

[3] = PBS and FaSSIF solubility; type: physicochemical; conditions: kinetic from dmso stock
Description: Test compounds were prepared as 10 mM stocks in DMSO and 15 μl samples transferred in duplicate into 1.5 mL glass flat bottom vials (BioTech Solutions). Fasted state simulated intestinal fluid (FaSSIF) or PBS (pH 7.4) was added to each vial to final volume of 500 μl. One PTFE encapsulated stir stick (V&P Scientific) was placed in each vial before sealing with PTFE/SIL plugs (BioTech Solutions). Vials were shaken at 1100 rpm for 2 hr at 25° C. Samples were then filtered through MultiScreen Solvinert filter plates (Millipore) via vacuum filtration. Aliquots of filtrate (5 μl) plus 5 μl DMSO were diluted in 490 μl 50% acetonitrile in water containing internal standard. The filtrate was analysed and quantified against a standard of known concentration using LC-MS/MS. Solubility values of the test compound and control compound were calculated as follows: […]

[4] = Hepatocyte clearance assay, human; type: in vitro ADME; conditions: average value from two experiments, read-out: Human heps Clint
Description: (§1) In vitro clearance studies were performed in primary rat and human hepatocytes (BiolVT). Vials of cryopreserved rat or human hepatocytes were thawed in a 37° C. water bath for 2 min. Cells were transferred into thawing medium (Williams' Medium E containing 30% Percoll, 1×GlutaMAX-1, 15 mM HEPES, 5% fetal bovine serum (FBS), 4 μg/ml insulin, 1 μM dexamethasone), centrifuged at 100 g for 10 min then resuspended in culture medium (Leibovitz's L-15 Medium) at a concentration of 0.5×10^6 viable cells/mL (number of viable cells assessed using AO/PI staining). Hepatocytes (198 μL) were transferred into wells of a 96-well non-coated plate and placed in a 37° C. incubator for 10 min. Test compound solutions were prepared from 10 mM stocks in DMSO, diluted to 100 μM in 50% (v/v in water) acetonitrile. Test compound samples (2 μl) were added to each well of hepatocytes and incubated at 37° C. Samples (25 μl) were collected at t=0, 15, 30, […] and 120 min, mixed with 6 volumes (150 μl) of acetonitrile containing internal standard (100 nM alprazolam, 200 nM caffeine and 100 nM tolbutamide), vortexed for 5 min and centrifuged for 45 min at 3220 g. An aliquot of supernatant (100 μL) was diluted with 100 μL ultra-pure water, and the mixture was used for LC/MS/MS analysis. All incubations were performed in duplicate. Peak areas were determined from extracted ion chromatograms. The slope value, k, was determined by linear regression of the natural logarithm of the remaining percentage of the parent drug vs. incubation time curve. The in vitro half-life (in vitro t½) was determined from the slope value: in vitro t½=0.693/k. Conversion of the in vitro t½ (in min) into the in vitro intrinsic clearance (in vitro CLint, in μL/min/1×10^6 cells) was done using the following equation (mean of duplicate determinations):
(§2) [formula] • V=incubation volume (0.2 mL) • N=number of hepatocytes per well (0.1×10^6 cells).

[5] = Hepatocyte clearance assay, rat; type: in vitro ADME; conditions: average value from two experiments, read-out: Rat heps Clint
Description: as §1, §2

[6] = fasted state simulated intestinal fluid (FaSSIF), fassif, Fasted state simulated intestinal fluid, 2 hr at 25° C., read-out: Solubility FaSSIF
[7] = cryopreserved primary human hepatocytes
[8] = cryopreserved primary rat hepatocytes
[9] = cryopreserved primary hepatocytes
[10] = aqueous buffer, PBS pH 7.4, 2 hr at 25° C., read-out: Solubility PBS (pH 7.4)

Row | mPTP Rat liver pIC50 [1] | inhibition at 20 min, 1 µM [2] | solubility at 2 h [3, 6] | hepatocyte CLint at 1 µM [4, 7] | hepatocyte CLint at 1 µM [5, 8] | IC50 [2] | hepatocyte CLint at 1 µM [4, 9] | hepatocyte CLint at 1 µM [5, 9] | solubility at 2 h [3, 10] | SMILES
1 | 7.3 | 1.3% | 23.7 µM (≈ 8.04 µg/mL) | 15.6 µL/min/1e6 cells | 47.8 µL/min/1e6 cells | – | – | – | – | COCc1c(F)cccc1NC(=O)/C=C/c1ccc2c(C)n[nH]c2c1 [Example 50, (E)-N-(3-fluoro-2-(methoxymethyl)phenyl)-3-(3-methyl-1H-indazol-6-yl)acrylamide]
2 | 7.2 | 3.49% | – | – | 87.5 µL/min/1e6 cells | 8.8 µM | – | – | – | N#Cc1n[nH]c2cc(/C=C/C(=O)NC3CCc4ccccc43)ccc12 (stereo not drawn) [Example 26, (E)-3-(3-cyano-1H-indazol-6-yl)-N-(2,3-dihydro-1H-inden-1-yl)acrylamide]
3 | 7.5 | 7.5% | 18.4 µM (≈ 6.87 µg/mL) | 24.6 µL/min/1e6 cells | 70.1 µL/min/1e6 cells | – | – | – | – | CO[C@H]1Cc2ccccc2[C@@H]1NC(=O)/C=C/c1ccc2c(C3CC3)n[nH]c2c1 [Example 70, (E)-3-(3-cyclopropyl-1H-indazol-6-yl)-N-((1S,2S)-2-methoxy-2,3-dihydro-1H-inden-1-yl)acrylamide]
4 | 6.9 | -3.03% | 69.8 µM (≈ 22.4 µg/mL) | – | 16.1 µL/min/1e6 cells | – | – | – | 33.5 µM (≈ 10.8 µg/mL) | Cc1cccc(C)c1NC(=O)/C=C/c1ccc2c(c1)[nH]c(=O)n2C [Example 29, (E)-N-(2,6-dimethylphenyl)-3-(1-methyl-2-oxo-2,3-dihydro-1H-benzo[d]imidazol-5-yl)acrylamide]
5 | 6.8 | -1.76% | 210 µM (≈ 68.3 µg/mL) | 6.08 µL/min/1e6 cells | 11.9 µL/min/1e6 cells | – | – | – | – | Cc1ccc(F)c(C)c1NC(=O)/C=C/c1ccc2c(c1)NC(=O)C2 [Example 20, (E)-N-(3-fluoro-2,6-dimethylphenyl)-3-(2-oxoindolin-6-yl)acrylamide]
6 | – | 9.98% | 24.4 µM (≈ 8.98 µg/mL) | – | – | – | 11.3 µL/min/1e6 cells | 77 µL/min/1e6 cells | – | CO[C@H]1Cc2ccccc2[C@@H]1NC(=O)/C=C/c1ccc2c(Cl)n[nH]c2c1 [Example 72, (E)-3-(3-chloro-1H-indazol-6-yl)-N-((1S,2S)-2-methoxy-2,3-dihydro-1H-inden-1-yl)acrylamide]

The remaining lines, values behind:

Row | SMILES | mPTP Rat liver pIC50 [1] | inhibition at 20 min, 1 µM [2] | solubility at 2 h [3, 6] | hepatocyte CLint at 1 µM [4, 7] | hepatocyte CLint at 1 µM [5, 8] | IC50 [2] | hepatocyte CLint at 1 µM [4, 9] | hepatocyte CLint at 1 µM [5, 9] | solubility at 2 h [3, 10]
7 | Cc1c(F)cc(F)c(C)c1NC(=O)/C=C/c1ccc2c(c1)NC(=O)C2 [Example 35, (E)-N-(3,5-difluoro-2,6-dimethylphenyl)-3-(2-oxoindolin-6-yl)acrylamide] | 7.2 | 2.83% | 258 µM (≈ 88.4 µg/mL) | 8.33 µL/min/1e6 cells | – | – | – | – | –
8 | O=C(/C=C/c1cc2[nH]nnc2cc1F)NC1CCc2ccccc21 (stereo not drawn) [Example 27, (E)-N-(2,3-dihydro-1H-inden-1-yl)-3-(5-fluoro-1H-benzo[d][1,2,3]triazol-6-yl) acrylamide] | – | 14.3% | 43.1 µM (≈ 13.9 µg/mL) | – | – | – | 9.6 µL/min/1e6 cells | – | –
9 | COCc1c(F)cncc1NC(=O)/C=C/c1ccc2c(C)n[nH]c2c1 [Example 114, (2E)-N-[5-fluoro-4-(methoxymethyl)pyridin-3-yl]-3-(3-methyl-1H-indazol-6-yl)prop-2-enamide] | – | – | 19 µM (≈ 6.47 µg/mL) | – | – | – | 3 µL/min/1e6 cells | 76 µL/min/1e6 cells | –
10 | COc1n[nH]c2cc(/C=C/C(=O)N[C@H]3c4ccccc4C[C@@H]3OC)ccc12 [Example 71, (E)-3-(3-methoxy-1H-indazol-6-yl)-N-((1S,2S)-2-methoxy-2,3-dihydro-1H inden-1-yl)acrylamide] | 7.0 | 7.4% | 19.9 µM (≈ 7.25 µg/mL) | 8.9 µL/min/1e6 cells | 72 µL/min/1e6 cells | – | – | – | –
11 | Cc1cc(F)c(F)c(C)c1NC(=O)/C=C/c1ccc2c(c1)NC(=O)C2 [Example 36, (E)-N-(3,4-difluoro-2,6-dimethylphenyl)-3-(2-oxoindolin-6-yl)acrylamide] | 7.2 | -2.57% | – | 7.26 µL/min/1e6 cells | 9.41 µL/min/1e6 cells | – | – | – | 65.9 µM (≈ 22.6 µg/mL)
